Data as given in patent publication US20090325314A1, “N-Methyl Scanning Mutagenesis” (UNIVERSITY OF SOUTHERN CALIFORNIA, priority 2008, published 2009).
Where no end group is shown, it is not given here. [ ]: non-standard residue; d: D form. NMeK = CN[C@@H](CCCCN)C(=O)O

Key:
Gαi1·GDP [1] = molecular target: T1, Gαi1·GDP (Homo sapiens, UniProt P63096); details: binding to Gαi1·GDP; literature value; cited from earlier work
Gαi1 = molecular target: T2, Gαi1 (Homo sapiens, UniProt P63096); assay: R6A-1 competition/equilibrium binding; details: relative to unmodified peptide
T2 construct: made in house; host or cells: cell-free TnT reticulocyte lysate system (Promega), T7 promoter
Method: FIG. 2. Relative Peptide Affinities. (A) Radiolabeled Gαi1 was incubated with immobilized, biotinylated R6A and varying concentrations of either R6A (▾), unmodified peptide (▴), or N-Me-K (♦) for 3 hr. at 4° C. The radiolabel bound was normalized to that which bound in the absence of competitor. The plotted values represent the mean of three experimental values and the error bars correspond to the standard deviation. (B) Experimentally determined binding data is shown above. The error is calculated based on the standard error of the mean (SEM) for the log IC50 using GraphPad 5.0.
R6A-1 Competition/Equilibrium Binding: R6A (MSQTKRLDDQLYWWEYL) and Bio-R6A (Bio-MSQTKRLDDQLYWWEYL) were synthesized by previously described methods. This peptide was immobilized to NeutrAvidin beads (Promega) using the manufacturer's instructions. Gαi1 was expressed using the TnT reticulocyte lysate system (T7 promoter, Promega). (250 ng) plasmid DNA and (25 μCi) L-35S-Met (MP Biomedicals) were used in an (25 μL) expression. […] Specific Activity was measured by TCA precipitation.
400 pmol immobilized R6A, and (100,000 cpm) Gαi1 were suspended in (1 mL) HBS-EP buffer. Varying quantities of free peptide (R6A, Unmodified peptide, or N-Me-K) were added. […] After the final wash, the immobilized sample was transferred to scintillation vials and analyzed by scintillation counting. […]

Gαi1·GDP [2] = molecular target: T1, Gαi1·GDP; assay: TnT pulldown binding of N-methyl peptide library; design: made in house; host or cells: cell-free TnT coupled transcription/translation system (Promega); cDNA clone from UMR cDNA Resource Center; details: compared with unmodified peptide
Method: Binding affinity of N-methyl peptide library: TnT pulldown experiments were carried out as described in [10] with some modifications. Human cDNA clones encoding G proteins with the pcDNA3.1+ vector (Invitrogen) were obtained from the UMR cDNA Resource Center (www.cdna.org). The DNA clones for Gαi1, and HRas were translated into 35S-Met labeled proteins using a TnT coupled transcription/translation system (Promega). Translation reactions were desalted using G-25 spin columns (GE Healthcare) and the translation yield was calculated by TCA precipitation. Equal amounts of each labeled subunit were added to (5 μL) neutravidin-agarose containing (2 nmol) pre-bound biotin labeled peptide in (1 mL) HBS-EP buffer. Control neutravidin-agarose beads were loaded with (d)-biotin (Anaspec). Binding reactions proceeded for 2 hrs at 4° C. followed by filtration and washing with HBS-EP. The matrix was analyzed by scintillation counting and the percent bound was determined by the matrix counts divided by the total counts as determined by TCA precipitation. Values were normalized to the percent bound of unmodified peptide.

T1 sequence (P63096 whole entry): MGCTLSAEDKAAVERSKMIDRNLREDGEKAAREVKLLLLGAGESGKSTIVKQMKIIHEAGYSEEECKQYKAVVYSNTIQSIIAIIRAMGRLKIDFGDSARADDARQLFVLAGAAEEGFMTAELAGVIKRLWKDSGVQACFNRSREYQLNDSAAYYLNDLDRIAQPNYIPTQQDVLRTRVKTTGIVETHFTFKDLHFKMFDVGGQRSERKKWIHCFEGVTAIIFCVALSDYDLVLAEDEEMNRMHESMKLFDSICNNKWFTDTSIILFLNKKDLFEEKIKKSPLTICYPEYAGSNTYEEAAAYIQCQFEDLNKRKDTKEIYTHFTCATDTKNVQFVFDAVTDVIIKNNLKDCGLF
T2 sequence (P63096 whole entry): as above

Row | Substance | Kd (Gαi1·GDP [1]) [nM] | ΔΔG (Gαi1; equilibrium competition with R6A) [kcal/mol] | enhanced binding (fold) by equilibrium competition using the R6A peptide (Gαi1; immobilized R6A, radiolabeled Gαi1, 3 hr at 4° C.) [fold] | peptide binding affinity to Gαi1·GDP (qualitative) (Gαi1·GDP [2])
1 | DKLYWWEFL | 200 | – | – | –
2 | MSQTKRLDDQLYWWEYL [Compound R6A] | 60 | – | – | –
3 | NNNNND[NMeK]LYWWEFL [N-Me-K] | – | -0.50 | 2.5 | increased binding affinity
